Source: patent US8344027B2, “4-dimethylaminobutyric acid derivatives” (Hoffmann-La Roche Inc., priority 2008, dated 2013)

Experiments:
hL-CPT1 = molecular target: T1, hL-CPT1 (Homo sapiens, UniProt P50416); assay: liver CPT1 inhibition, spectrophotometric DTNB (Ellman's reagent) assay; type: biochemical; settings: human liver CPT1 expressed in P. pastoris, cell extract; carnitine 500 μM, palmitoyl-CoA 80 μM, DTNB 300 μM
T1 construct: made in house; host or cells: Pichia pastoris strain X-33
T1 sequence (P50416 1-773): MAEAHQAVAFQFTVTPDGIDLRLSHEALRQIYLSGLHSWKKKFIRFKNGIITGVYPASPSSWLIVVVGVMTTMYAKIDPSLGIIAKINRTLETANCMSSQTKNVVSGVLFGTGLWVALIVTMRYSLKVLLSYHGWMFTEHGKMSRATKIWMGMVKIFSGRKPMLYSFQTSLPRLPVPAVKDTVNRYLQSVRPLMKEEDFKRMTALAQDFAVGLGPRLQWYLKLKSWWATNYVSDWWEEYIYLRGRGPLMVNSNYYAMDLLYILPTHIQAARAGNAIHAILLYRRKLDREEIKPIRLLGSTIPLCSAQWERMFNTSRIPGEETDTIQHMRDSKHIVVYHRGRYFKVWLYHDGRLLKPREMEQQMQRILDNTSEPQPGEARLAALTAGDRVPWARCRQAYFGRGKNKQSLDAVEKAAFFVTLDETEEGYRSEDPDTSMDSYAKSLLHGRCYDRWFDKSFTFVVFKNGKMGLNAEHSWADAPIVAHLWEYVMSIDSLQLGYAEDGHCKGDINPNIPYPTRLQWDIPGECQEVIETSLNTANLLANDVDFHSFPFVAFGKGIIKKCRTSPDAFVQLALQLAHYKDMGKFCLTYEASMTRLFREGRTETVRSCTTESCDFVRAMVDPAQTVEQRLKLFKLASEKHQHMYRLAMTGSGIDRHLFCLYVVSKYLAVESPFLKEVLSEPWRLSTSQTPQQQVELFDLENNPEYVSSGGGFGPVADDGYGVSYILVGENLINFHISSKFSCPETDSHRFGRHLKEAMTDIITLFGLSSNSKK
Protocol: (§1) The following tests were carried out in order to determine the activity of the compounds of the present invention. Background information on the performed assays can be found in: Jackson et al., 1999, Biochem. J. 341, 483-489 and Jackson et al., 2000, J. Biol. Chem. 275, 19560-19566.
(§2) Human and rat CPT2- and liver CPT1 cDNAs, and human muscle CPT1 cDNA were subcloned in pGAPZB or pGAPZA, respectively. These plasmids were used to transform P. pastoris strain X-33 via electroporation after the preparation of electrocompetent cells. High copy number clones were selected where necessary using 0.5 or 1 mg/ml Zeocin. Cultures for activity measurements were induced for 16 h in YPD medium (1% yeast extract, 2% peptone, 2% glucose). Crude cell extracts were prepared by disrupting the cells with glass beads or French Press, depending on fermenter sizes. After centrifugation, the cell-free extracts were resuspended in cell breaking buffer (50 mM Tris, pH7.4, 100 mM KCl, 1 mM EDTA) in the presence of a protease inhibitor cocktail, before aliquoting and freezing at −20° C.
(§3) CPT activity was measured using a spectrophotometric assay using 5,5′-dithio-bis-(2-nitrobenzoic acid) (DTNB) also called Ellman's reagent. The HS-CoA released on the formation of acylcarnitine from carnitine (500 μM) and palmitoyl-CoA (80 μM) reduced DTNB (300 μM) forming 5-mercapto-2-nitrobenzoic acid which absorbed at 410 nm with a molar extinction coefficient of 13600 M^−1cm^−1. The assay buffer contained 120 mM KCl, 25 mM Tris, pH 7.4, 1 mM EDTA. This assay was used for the identification of CPT inhibitors, particularly/preferentially CPT2-selective inhibitors, versus the liver and muscle CPT1 isoforms.

hCPT2 = molecular target: T2, hCPT2 (Homo sapiens, UniProt P23786); assay: CPT2 inhibition, spectrophotometric DTNB (Ellman's reagent) assay; type: biochemical; settings: human CPT2 expressed in P. pastoris, cell extract; carnitine 500 μM, palmitoyl-CoA 80 μM, DTNB 300 μM
T2 construct: made in house; host or cells: Pichia pastoris strain X-33
T2 sequence (P23786 26-658): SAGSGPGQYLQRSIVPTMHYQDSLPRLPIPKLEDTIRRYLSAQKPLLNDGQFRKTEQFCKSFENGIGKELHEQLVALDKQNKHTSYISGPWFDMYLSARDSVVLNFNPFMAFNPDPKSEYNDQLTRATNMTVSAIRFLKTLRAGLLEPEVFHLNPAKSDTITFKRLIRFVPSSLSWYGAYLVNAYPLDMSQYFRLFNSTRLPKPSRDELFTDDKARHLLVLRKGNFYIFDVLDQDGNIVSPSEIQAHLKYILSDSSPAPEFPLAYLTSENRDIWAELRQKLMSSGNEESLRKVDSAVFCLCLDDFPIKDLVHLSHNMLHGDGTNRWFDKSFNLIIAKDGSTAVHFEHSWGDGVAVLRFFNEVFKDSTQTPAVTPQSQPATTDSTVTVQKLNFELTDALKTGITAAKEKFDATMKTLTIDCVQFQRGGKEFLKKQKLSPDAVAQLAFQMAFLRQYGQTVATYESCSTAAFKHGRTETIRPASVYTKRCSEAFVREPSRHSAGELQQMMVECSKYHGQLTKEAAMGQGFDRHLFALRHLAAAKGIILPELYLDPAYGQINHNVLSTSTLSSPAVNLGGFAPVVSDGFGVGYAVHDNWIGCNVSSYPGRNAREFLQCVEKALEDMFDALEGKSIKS
Protocol: as §1, §2, §3

SMILES | IC50 (hL-CPT1) [nM] | IC50 (hCPT2) [nM]
CN(C)C[C@@H](CC(=O)O)NC(=O)CCCCCCCCCc1cccc2ccccc12 [Example 39, (R)-4-Dimethylamino-3-(10-naphthalen-1-yl-decanoylamino)-butyric acid] | > 10000 | 3
COc1c(F)c(F)c(COCCCCCCCC(=O)N[C@H](CC(=O)O)CN(C)C)c(F)c1F [Example 11, (R)-4-Dimethylamino-3-[8-(2,3,5,6-tetrafluoro-4-methoxy-benzyloxy)-octanoylamino]-butyric acid] | > 10000 | 2940
CN(C)C[C@@H](CC(=O)O)NC(=O)CCCCCCCOCc1ccc(C(F)(F)F)c(F)c1 [Example 7, (R)-4-Dimethylamino-3-[8-(3-fluoro-4-trifluoromethyl-benzyloxy)-octanoylamino]-butyric acid] | 5990 | 591
CN(C)C[C@@H](CC(=O)O)NC(=O)NCCCCCCCCCc1ccccc1 [Example 63, (R)-4-Dimethylamino-3-[3-(9-phenyl-nonyl)-ureido]-butyric acid] | 2870 | 332
CN(C)C[C@@H](CC(=O)O)NC(=O)CCCCCCCOCc1cccc2ccccc12 [Example 12, (R)-4-Dimethylamino-3-[8-(naphthalen-1-ylmethoxy)-octanoylamino]-butyric acid] | > 10000 | 300
CN(C)C[C@@H](CC(=O)O)NC(=O)CCCCCCCCCCCc1ccccc1 [Example 51, (R)-4-Dimethylamino-3-(12-phenyl-dodecanoylamino)-butyric acid] | 1060 | 184
CN(C)C[C@@H](CC(=O)O)NC(=O)CCCCCCCOCc1ccc(C(F)(F)F)cc1F [Example 10, (R)-4-Dimethylamino-3-[8-(2-fluoro-4-trifluoromethyl-benzyloxy)-octanoylamino]-butyric acid] | > 10000 | 694
Cc1cccc(C)c1CCCCCCCCCC(=O)N[C@H](CC(=O)O)CN(C)C [Example 37, (R)-4-Dimethylamino-3-[10-(2,6-dimethyl-phenyl)-decanoylamino]-butyric acid] | > 10000 | 241

Continued, values first:

IC50 (hL-CPT1) [nM] | IC50 (hCPT2) [nM] | SMILES
> 10000 | 3490 | CN(C)C[C@@H](CC(=O)O)NC(=O)CCCCCCCOCc1cc(F)ccc1F [Example 2, (R)-3-[8-(2,5-Difluoro-benzyloxy)-octanoylamino]-4-dimethylamino-butyric acid]
6680 | 265 | CN(C)C[C@@H](CC(=O)O)NC(=O)CCCCCCCCOc1cccc(F)c1F [Example 21, (R)-3-[9-(2,3-Difluoro-phenoxy)-nonanoylamino]-4-dimethylamino-butyric acid]
4320 | 122 | CN(C)C[C@@H](CC(=O)O)NC(=O)CCCCCCCCCc1ccc(F)cc1 [Example 34, (R)-4-Dimethylamino-3-[10-(4-fluoro-phenyl)-decanoylamino]-butyric acid]
3590 | 46 | CN(C)C[C@@H](CC(=O)O)NC(=O)CCCCCCCCCc1ccccc1F [Example 35, (R)-4-Dimethylamino-3-[10-(2-fluoro-phenyl)-decanoylamino]-butyric acid]
1470 | 19 | CN(C)C[C@@H](CC(=O)O)NC(=O)CCCCCCCCOc1ccc(-c2ccccc2)cc1 [Example 25, (R)-3-[9-(Biphenyl-4-yloxy)-nonanoylamino]-4-dimethylamino-butyric acid]
> 10000 | 1560 | CN(C)C[C@@H](CC(=O)O)NC(=O)CCCCCCCOCc1ccccc1 [Example 17, (R)-3-(8-Benzyloxy-octanoylamino)-4-dimethylamino-butyric acid]
2330 | 16 | CN(C)C[C@@H](CC(=O)O)NC(=O)CCCCCCCCOc1cccc(F)c1 [Example 19, (R)-4-Dimethylamino-3-[9-(3-fluoro-phenoxy)-nonanoylamino]-butyric acid]
> 10000 | 160 | CN(C)C[C@@H](CC(=O)O)NC(=O)CCCCCCCCOc1cccc2ccccc12 [Example 29, (R)-4-Dimethylamino-3-[9-(naphthalen-1-yloxy)-nonanoylamino]-butyric acid]
6550 | 2060 | CN(C)C[C@@H](CC(=O)O)NC(=O)CCCCCCCOCc1ccc(F)cc1 [Example 15, (R)-4-Dimethylamino-3-[8-(4-fluoro-benzyloxy)-octanoylamino]-butyric acid]
> 10000 | 948 | CN(C)C[C@H](CC(=O)O)NC(=O)CCCCCCCCCc1ccccc1 [Example 33, (S)-4-Dimethylamino-3-(10-phenyl-decanoylamino)-butyric acid]
> 10000 | 2630 | CN(C)C[C@@H](CC(=O)O)NC(=O)CCCCCCCOCc1ccccc1F [Example 13, (R)-4-Dimethylamino-3-[8-(2-fluoro-benzyloxy)-octanoylamino]-butyric acid]
> 10000 | 152 | COc1ccc(COCCCCCCCC(=O)N[C@H](CC(=O)O)CN(C)C)cc1 [Example 8, (R)-4-Dimethylamino-3-[8-(4-methoxy-benzyloxy)-octanoylamino]-butyric acid]
